{
  "source": "paper PMC8113213",
  "about": "“Physiologically based kinetic modelling based prediction of in vivo rat and human acetylcholinesterase (AChE) inhibition upon exposure to diazinon” (Archives of Toxicology, 2021)",
  "key": {"rat RBC AChE": {"molecular_target": "T1, rat RBC AChE (Rattus norvegicus, UniProt P37136)", "T1 construct": "the membrane fraction (containing AChE) was sedimented by centrifugation at 20,000g for 40 min; tissue BioIVT; host or cells: rat red blood cell membranes (from whole blood)", "T1 sequence (P37136 other isoform, or with tags, fused parts or gaps)": "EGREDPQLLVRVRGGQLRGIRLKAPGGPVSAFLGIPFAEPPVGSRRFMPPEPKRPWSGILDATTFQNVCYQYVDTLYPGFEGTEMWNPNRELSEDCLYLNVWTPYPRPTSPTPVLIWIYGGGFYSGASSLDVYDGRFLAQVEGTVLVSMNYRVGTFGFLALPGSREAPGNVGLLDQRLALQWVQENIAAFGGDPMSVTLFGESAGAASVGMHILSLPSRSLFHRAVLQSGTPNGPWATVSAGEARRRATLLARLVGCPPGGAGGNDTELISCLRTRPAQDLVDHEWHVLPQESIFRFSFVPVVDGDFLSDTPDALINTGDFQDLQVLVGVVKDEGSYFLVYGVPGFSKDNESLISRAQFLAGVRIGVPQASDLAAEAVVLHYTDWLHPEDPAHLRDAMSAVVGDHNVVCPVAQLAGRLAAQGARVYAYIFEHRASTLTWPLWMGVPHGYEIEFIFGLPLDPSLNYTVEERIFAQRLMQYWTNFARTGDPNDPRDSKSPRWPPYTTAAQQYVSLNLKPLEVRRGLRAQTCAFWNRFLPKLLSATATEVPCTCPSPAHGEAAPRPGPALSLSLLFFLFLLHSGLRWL", "assay": "In vitro AChE inhibition assay (Ellman) with extracted rat RBC AChE", "assay_type": "biochemical", "description": "However, since recombinant rat AChE was not commercially available, extracted rat RBC AChE was used. […] The concentration of DTNB was calculated based on the concentration ratio (ATC/DTNB) of 2 (Stern et al. [2014]). […] To initiate the inhibition reaction, 1 µl rhAChE or rat AChE (final concentration 0.6 mU/ml) was added to the incubation. The total incubation volume was 50 µl. After 15 min incubation at 37℃, 150 µl reaction reagents (mixture of ATC at a final concentration of 150 µM and DTNB at a final concentration of 75 µM) were added into each well. The final total volume of each well was 200 µl. Subsequently, the 96-well plate was measured continuously for 10 min at absorbance 412 nm at 37℃ to quantify the remaining AChE activity.\nThe rhAChE and rat AChE activity were expressed as the remaining AChE activity relative to solvent control (100% activity) and positive control (0% activity) based on Eq. (2):2 AChEactivity\\%=A412t10-t0testcompound-A412t10-t0positivecontrol/A412t10-t0solventcontrol-A412t10-t0positivecontrol×100\\% , where the A412(t10 − t0)test compound is the change in the absorbance at A412 nm between 0 and 10 min for the test compound, the A412(t10 − t0)positive control is the change in the absorbance at A412 nm between 0 and 10 min for the CPO sample, and the A412(t10 − t0)solvent control is the change in the absorbance at A412nm between 0 and 10 min for the 0.2% ethanol sample."}, "[1]": {"conditions": "rat; ref JMPR 2016; cited from earlier work"}, "brain AChE": {"test_system": "brain AChE", "conditions": "cited from earlier work; for inhibition of brain AChE: ref Padilla et al. 2004"}, "RBC AChE [2]": {"test_system": "RBC AChE", "assay": "TEF-coded PBK model-based reverse dosimetry, predicted in vivo RBC AChE inhibition, rat", "conditions": "for Predicted BMDL10 for rat pups: adult rat predicted BMDL10 corrected by factor 2 (Padilla et al. 2004)", "excerpt": "The PBK model for DZN was developed based on the model from Poet et al. ([2004]) with some modifications for both rat and human. The model contains a submodel for the metabolite DZO and was defined to include compartments for rapidly perfused tissue, slowly perfused tissue, liver, fat and blood for both the parent compound DZN and its metabolite DZO. The model also contains a compartment to describe the urinary elimination of the metabolites IMHP and DAP (sum of DEP and DETP). In the currently developed model, oral exposure was included since we aimed at defining a POD for risk assessment of exposure via food and drinking water, and intravenous (IV) exposure was included for model evaluation. The fractional absorption (fa) was set equal to literature reported values, being 0.8 in rat (Poet et al. [2004]) and 0.66 in human (Garfitt et al. [2002]) and applied to the overall dose. The absorption of DZN from the stomach into the liver was described using a two-compartment gastrointestinal tract model as reported by Poet et al. ([2004]), with a first-order rate constant for absorption of DZN from the stomach into the liver (KaS) of 0.1 /h for rat and 0.32/h for human (Poet et al. [2004]), a first-order rate constant for transfer of DZN from the stomach into the intestine (KsI) of 0.48/h for both rat and human, a first-order rate constant for absorption DZN from the intestine into the liver (KaI) of 0.59/h for both rat and human, (Poet et al. [2004]), and Ke values for the elimination of IMHP or DAP (sum of DEP and DETP) into the urine amounting to Ke IMHP = 0.29/h, Ke DEP = 0.29 /h and Ke DETP = 0.29/h for rat (Poet et al. [2004]), and Ke IMHP = 12/h, Ke DEP = 12 /h and Ke DETP = 12/h for human (Garfitt et al. [2002]; Poet et al. [2004]).\nThe physiological parameters for rat and human were obtained from Brown et al. ([1997]) as well as Gearhart et al. ([1990]), and are summarised in Table 1. […] The kinetic parameters for biotransformation of DZN in rat and human were obtained by conducting in vitro liver microsomal/plasma incubations as described in the section “In vitro metabolic incubations for deriving kinetic parameters”. […] The first-pass metabolism of DZN by the intestine was not taken into account in the current model because the metabolic conversion in the intestine derived from the conversion in incubations with intestinal microsomes upon scaling to the whole organ, appeared less than 5% of that obtained in a similar way for the liver (data not shown). […] The Km values determined in vitro were assumed to be equal to in vivo Km values. […]"}, "brain and RBC AChE": {"test_system": "brain and RBC AChE", "conditions": "cited from earlier work"}, "RBC AChE [3]": {"test_system": "RBC AChE", "assay": "TEF-coded PBK model-based reverse dosimetry, predicted in vivo RBC AChE inhibition, human", "excerpt": "The PBK model for DZN was developed based on the model from Poet et al. ([2004]) with some modifications for both rat and human. The model contains a submodel for the metabolite DZO and was defined to include compartments for rapidly perfused tissue, slowly perfused tissue, liver, fat and blood for both the parent compound DZN and its metabolite DZO. The model also contains a compartment to describe the urinary elimination of the metabolites IMHP and DAP (sum of DEP and DETP). In the currently developed model, oral exposure was included since we aimed at defining a POD for risk assessment of exposure via food and drinking water, and intravenous (IV) exposure was included for model evaluation. The fractional absorption (fa) was set equal to literature reported values, being 0.8 in rat (Poet et al. [2004]) and 0.66 in human (Garfitt et al. [2002]) and applied to the overall dose. […]\nThe physiological parameters for rat and human were obtained from Brown et al. ([1997]) as well as Gearhart et al. ([1990]), and are summarised in Table 1. […] The Km values determined in vitro were assumed to be equal to in vivo Km values. […]"}, "[4]": {"conditions": "rat, ref Poet et al. 2004, cited from earlier work"}},
  "note": "Where two headings read alike, the source gives them in different places. Marks after values point to notes of the source that are not given here.",
  "data": [
    {"smiles": "CCOP(=S)(OCC)Oc1cc(C)nc(C(C)C)n1", "note": "[DZN, O,O-diethyl O-2-isopropyl-6-methylpyrimidin-4-yl phosphorothioate]", "values": [
      {"measurement": "IC50", "setting": "rat RBC AChE; rat RBC AChE, 15 min incubation at 37℃", "result": 14.7, "unit": "µM"},
      {"measurement": "toxic equivalency factor (TEF)", "setting": "rat RBC AChE; rat, IC50 DZO/IC50 DZN, TEF of DZO set at 1.0", "result": 0.00351},
      {"measurement": "toxic dose level reported", "setting": "[1]", "result": 300, "unit": "mg/kg bw"},
      {"measurement": "inhibition of brain AChE", "setting": "brain AChE; adult rats, oral dose of 75 mg/kg bw", "result": 38, "unit": "%"},
      {"measurement": "BMDL10 for inhibition of brain AChE", "setting": "brain AChE; male adult rats, oral DZN, ref USEPA 2016", "result": 12.175, "unit": "mg/kg bw/day"},
      {"measurement": "inhibition of brain AChE", "setting": "brain AChE; pups at postnatal day 17, oral dose of 75 mg/kg bw", "result": 75, "unit": "%"},
      {"measurement": "corrected POD (rat pups) higher than POD used by the EPA", "setting": "RBC AChE [2]", "result": 2.1, "unit": "fold"},
      {"measurement": "predicted rat BMDL10 higher than reported BMDL10 for inhibition of RBC AChE", "setting": "RBC AChE [2]", "result": 2.6, "unit": "fold"},
      {"measurement": "Predicted BMDL10 for rat pups", "setting": "RBC AChE [2]", "result": 6.3, "unit": "mg/kg bw"},
      {"measurement": "Predicted BMDL10 for rat pups", "setting": "RBC AChE [2]; listed as Diazinon", "result": "6.3^a mg/kg bw"},
      {"measurement": "overall NOAEL from three rat studies", "setting": "brain and RBC AChE; EFSA, ref EFSA 2006", "result": 2.5, "unit": "mg/kg bw"},
      {"measurement": "LOAEL, inhibition of brain and RBC AChE activity in female rat", "setting": "brain and RBC AChE; JMPR, ref JMPR 2016", "result": 25, "unit": "mg/kg bw"},
      {"measurement": "NOAEL, acute (neuro)toxicity study in rats", "setting": "brain and RBC AChE; JMPR, ref JMPR 2016", "result": 2.5, "unit": "mg/kg bw"},
      {"measurement": "Reported NOAEL from EFSA and JMPR (adult rat)", "setting": "brain and RBC AChE; ref EFSA 2006, JMPR 2016", "result": 2.5, "unit": "mg/kg bw"},
      {"measurement": "predicted BMDL10 for human lower than that for rat", "setting": "RBC AChE [3]", "result": 6, "unit": "fold"},
      {"measurement": "fractional absorption (fa)", "setting": "[4]; oral", "result": 0.8},
      {"measurement": "first-order rate constant for absorption from the intestine into the liver (KaI)", "setting": "[4]", "result": 0.59, "unit": "h⁻¹"},
      {"measurement": "first-order rate constant for absorption from the stomach into the liver (KaS)", "setting": "[4]", "result": 0.1, "unit": "h⁻¹"},
      {"measurement": "first-order rate constant for transfer from the stomach into the intestine (KsI)", "setting": "[4]", "result": 0.48, "unit": "h⁻¹"}
    ]}
  ]
}
